Data: patent US12447188B2, “Compositions and methods for the antiseptic treatment of biofilms on mammalian tissue” (Avadim Health IP, Inc., priority 2019, dated 2025)
≈ marks a conversion by molar mass, not a printed value.

Test system: GAS
Details: tested with GAS

`CC[C@H](C)[C@H](NC(=O)[C@H](CCCCN)NC(=O)[C@H](CCC(=O)O)NC(=O)[C@H](CCCCN)NC(=O)[C@H](CO)NC(=O)[C@H](CCCCN)NC(=O)[C@H](CCCNC(=N)N)NC(=O)[C@H](Cc1ccccc1)NC(=O)[C@H](Cc1ccccc1)NC(=O)[C@H](CC(=O)O)NC(=O)CNC(=O)[C@H](CC(C)C)NC(=O)[C@@H](N)CC(C)C)C(=O)NCC(=O)N[C@@H](CCCCN)C(=O)N[C@@H](CCC(=O)O)C(=O)N[C@@H](Cc1ccccc1)C(=O)N[C@@H](CCCCN)C(=O)N[C@@H](CCCNC(=N)N)C(=O)N[C@H](C(=O)N[C@H](C(=O)N[C@@H](CCC(N)=O)C(=O)N[C@@H](CCCNC(=N)N)C(=O)N[C@H](C(=O)N[C@@H](CCCCN)C(=O)N[C@@H](CC(=O)O)C(=O)N[C@@H](Cc1ccccc1)C(=O)N[C@@H](CC(C)C)C(=O)N[C@@H](CCCNC(=N)N)C(=O)N[C@@H](CC(N)=O)C(=O)N[C@@H](CC(C)C)C(=O)N[C@H](C(=O)N1CCC[C@H]1C(=O)N[C@@H](CCCNC(=N)N)C(=O)N[C@H](C(=O)N[C@@H](CCC(=O)O)C(=O)N[C@@H](CO)C(=O)O)[C@@H](C)O)C(C)C)[C@@H](C)CC)C(C)C)[C@@H](C)CC` [Synthetic LL-37 peptide] gave an MBC of 16 µM (≈ 71.9 µg/mL) and an MIC of 16 µM (≈ 71.9 µg/mL).
